# Data: patent US20040142960A1 (priority 2001, published 2004)
# Where a name gives a salt, the structure may show the parent alone.
# Experiments:
# bone marrow cells = settings: concentrations at which the adrenergic antagonists are effective; cited from earlier work
# HSV-1 [1] = settings: cited from earlier work
# [2] = antibody response in treated subjects; format: in vivo
# HSV-1 [3] = assay: systemic or local treatment, HSV-1 reactivation from latency; format: in vivo
# Langerhans cells = settings: administered intraperitoneally; cited from earlier work
smiles,measurement,setting,value
Cc1ccc(N(CC2=NCCN2)c2cccc(O)c2)cc1 [phentolamine],relative order of potency in counteracting norepinephrine,bone marrow cells,prazosin>phentolamine>yohimbine
COc1cc2nc(N3CCN(C(=O)c4ccco4)CC3)nc(N)c2cc1OC [prazosin],relative order of potency in counteracting norepinephrine,bone marrow cells,prazosin>phentolamine>yohimbine
COC(=O)[C@@H]1[C@H]2C[C@H]3c4[nH]c5ccccc5c4CCN3C[C@@H]2CC[C@@H]1O [yohimbine hydrochloride],activity on HSV-1,HSV-1 [1],inactive
"COC(=O)[C@@H]1[C@H]2C[C@H]3c4[nH]c5ccccc5c4CCN3C[C@@H]2CC[C@@H]1O [yohimbine, (16α,17α)-hydroxyyohimban-16-carboxylic acid methyl ester]",antibody response,[2],stimulates and enhances the antibody response
same,inflammation during HSV-1 reactivation,HSV-1 [3]; in vivo,reduced inflammation
same,HSV-1 reactivation frequency,HSV-1 [3]; systemic or local treatment,reduces the HSV-1 reactivation frequency
same,local norepinephrine concentration,HSV-1 [3]; systemic or local treatment,local increase of norepinephrine concentration
same,Langerhans cells migration,Langerhans cells,enhances the Langheran's cells migration
